83 compounds from PubChem BioAssay AID588780 (Sanford-Burnham Center for Chemical Genomics, 2011) can be followed below.

Active and inactive are the calls of the source.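 Rule for the calls: active = compounds whose fitted half-maximal concentration in the cell-protection dose series is at or below a set limit; inactive = the rest.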 Where only a bound is given, the exact number is not on record here.

The term IC50 denotes the midpoint of a concentration-inhibition curve.

In this assay the test system is H9c2 cardiomyocytes, 2-deoxyglucose stress, ATP luminescence, 2 h. Put plainly: H9c2 cell survival under 2-deoxyglucose stress – uHTS hits, dose response (AID 588780).
Take `CSCCC(NS(=O)(=O)c1ccccc1)C(=O)OCc1cc(=O)oc2cc(O)ccc12` (stereo not drawn): the IC50 is > 79 µM (inactive). To `COc1ccc(-c2cc3nc(-c4ccccc4)cc(N4CCN(C(=O)c5ccoc5)CC4)n3n2)cc1` belongs 6.39 µM. Then `O=C(N/N=C/c1cn(-c2ccccc2)nc1-c1cccnc1)c1cccnc1`, with > 79 µM (inactive); and `Cc1ccc(NC(=O)c2cc(-c3cccs3)nc3ccccc23)nc1`, with 9.88 µM.

In the case of `COc1ccc(-c2nn(-c3ccccc3)cc2C(=O)Nc2nccs2)cc1`, the concentration for half-maximal inhibition (IC50) is 12.1 µM.

With `CNC(=O)c1ccc(-c2sc3nc(N4CCOCC4)c4c(c3c2N)CCCC4)o1`, the IC50 was > 79 µM (inactive). To `COC(=O)Oc1ccc(/C=C/C(=O)OC(C)C)cc1OC(=O)OC` belongs 63.1 µM (inactive); to `Cc1nc(SCC(=O)N2CCN(c3ccccc3)CC2)c2oc3ccccc3c2n1`, 13.8 µM; to `C[C@H]1Cn2cnc(C(=O)N[C@@H](Cc3c[nH]c4ccccc34)C(=O)OC(C)(C)C)c2C(=O)N1`, 21 µM. To `Cc1ccc(NC(=O)CCc2nc3ccccc3c(=O)[nH]2)cc1S(=O)(=O)N1CCOCC1` belongs > 79 µM (inactive); to `O=C(Nc1cccnc1)c1sc(Nc2ccccc2)nc1-c1ccccc1`, > 79 µM (inactive); to `CCN(CC(=O)Nc1cc(Cl)ccc1C)C(=O)CCc1nc2ccccc2c(=O)[nH]1`, > 79 µM (inactive). In the case of `O=C(c1cc(=O)[nH]c2ccccc12)N1CCN(S(=O)(=O)c2ccc(Cl)cc2)CC1`, the IC50 was > 79 µM (inactive).

For `CCOc1ccc(C(C(=O)NC2CCCC2)N(C(=O)c2snc(C(N)=O)c2N)c2cccc(O)c2)cc1` (stereo not drawn), the IC50 is > 79 µM (inactive). Then `COc1ccc2occ(C(=O)c3coc4ccc(O)c(CN(C)C)c34)c2c1`, with > 79 µM (inactive). To `CCOC(=O)Cn1c(=NC(=O)c2cc(-c3cccs3)nc3ccccc23)sc2cc(S(N)(=O)=O)ccc21` belongs > 79 µM (inactive); to `O=C(NCCc1ccc(F)cc1)C(=O)Nc1cc2c3c(c1)CC(=O)N3CCC2`, 26.9 µM; to `N#C/C(=C\c1ccc(-c2cccc([N+](=O)[O-])c2)o1)C(=O)NCCN1CCOCC1`, > 79 µM (inactive).

Consider `CCN(CC)C(=O)c1[nH]cnc1C(=O)NCC(=O)OCc1ccccc1`, for which the IC50 is > 79 µM (inactive). Then `CCN(C[C@H]1N[C@@](C)(C(=O)OC)[C@H]2C(=O)N(Cc3ccccc3)C(=O)[C@@H]12)C(=O)c1ccc(C(C)(C)C)cc1`, with > 79 µM (inactive). Then `O=C(COC(=O)c1ccccc1C(=O)OCC(=O)NCCc1c[nH]c2ccccc12)NCCc1c[nH]c2ccccc12`, with > 79 µM (inactive); and `Cc1c(NC(=O)Cn2[nH]c(=O)c3ccccc3c2=O)c(=O)n(-c2ccccc2)n1C`, with > 79 µM (inactive). To `CN(C(=O)CSc1nc2c(c(=O)[nH]1)CCCC2)C1CCCCC1` belongs > 79 µM (inactive); to `O=C(CSc1nnc(-c2cccnc2)o1)c1cc2ccccc2oc1=O`, 67 µM (inactive); to `COc1cccc2cc(-c3cc(=O)oc4ccc(OCC(C)=O)cc34)oc12`, > 79 µM (inactive).

On to `COc1ccc(-c2cc(NC=O)c3ncc(-c4cccc(C(C)=O)c4)n3c2)cc1`, for which the IC50 is > 79 µM (inactive). To `COc1ccc(-n2nc(C(=O)NCC(=O)Nc3cc(OC)c(OC)c(OC)c3)c3ccccc3c2=O)cc1Cl` belongs > 79 µM (inactive).

As to `O=c1[nH]nc(Cc2ccccn2)c2ccccc12`, the IC50 was > 79 µM (inactive). For the compound `N#Cc1c(-c2ccco2)cc(-c2cccnc2)nc1N`, the half-maximal inhibitory concentration (IC50) was 12.1 µM. Take `COc1cc(OC)cc(-c2cc3nc(C)c(CCC(=O)Nc4nc(C)cs4)c(C)n3n2)c1`: the IC50 was > 79 µM (inactive). To `O=c1c2ccccc2nc2c3ccccc3c(NCCO)nn12` belongs 45.5 µM (inactive). Then `COCCCNC(=O)/C(C#N)=C1\N=C(NC(=O)c2cccs2)c2ccccc21`, with > 79 µM (inactive). To `Cc1c(C(=O)Nc2ccc3nc(N4CCOCC4)sc3c2)oc2ccccc12` belongs > 79 µM (inactive); to `CCOc1ccc(CCNC(=O)c2cc3c(C)nccc3[nH]c2=O)cc1OCC`, 12.4 µM. Take `CCOCCCNC(=O)CCC(=O)NNc1nc2ccccc2c2nc(-c3ccccc3)nn12`: the IC50 is 54 µM (inactive). Then `CC(C)n1nc(C(=O)OCC(=O)c2c[nH]c3ccccc23)c2ccccc2c1=O`, with > 79 µM (inactive); and `CCOC(=O)c1cccc(Nc2nc(-c3cccnc3)nc3ccccc23)c1`, with 29.1 µM; and `O=C(CNC(=O)c1[nH]cnc1C(=O)NC(c1ccccc1)c1ccccc1)OCc1ccccc1`, with 13.1 µM.

Turning to `CCOC(=O)c1ccccc1NC(=O)c1ccc2c(=O)n3c(nc2c1)CCCCC3`, the IC50 is > 79 µM (inactive). As for `COc1ccc(Br)cc1/C=N/NC(=O)CNC(=O)/C=C/c1ccccc1`, the IC50 is > 79 µM (inactive). Turning to `CC(OC(=O)Cc1n[nH]c(=O)c2ccccc12)C(=O)Nc1ccc(Cl)cn1` (stereo not drawn), the IC50 was > 79 µM (inactive). Then `Oc1ccc(Br)cc1C=Nc1ccc2c3c(cccc13)CC2`, with 59.1 µM (inactive). Then `Nc1c(C(=O)NC2CC2)c2nc3ccccc3nc2n1-c1ccc2c(c1)OCO2`, with > 79 µM (inactive); and `COc1ccc(S(=O)(=O)N2CC(O)CC2C(=O)OCc2nc3sc(C)c(C)c3c(=O)[nH]2)cc1` (stereo not drawn), with > 79 µM (inactive); and `Cc1ccc(-c2n[nH]c(=O)c3ccccc23)cc1S(N)(=O)=O`, with > 79 µM (inactive). To `COC(=O)c1cc(OC)c(OC)cc1NC(=O)c1ccc(C)o1` belongs 25.9 µM. Turning to `CN(C)S(=O)(=O)n1cc(/C=C(\NC(=O)c2ccccc2F)C(=O)NCCN2CCOCC2)c2ccccc21`, the IC50 was > 79 µM (inactive). To `Cc1sc2nc(SCC(=O)N3CCCC3)[nH]c(=O)c2c1C` belongs > 79 µM (inactive). To `O=C(NCC(=O)N(Cc1ccccc1)C(C(=O)NC1CCCCC1)c1ccco1)c1ccco1` (stereo not drawn) belongs 16.2 µM; to `CCSc1nnc(N)s1`, > 79 µM (inactive). Then `CCOC(=O)c1cc(-c2nnc(-c3cc(OC)c(OC)c(OC)c3)o2)c(C)nc1C`, with > 79 µM (inactive); and `COc1ccc(C(=O)Nc2cccc(NC(=O)c3ccc(OC)c(OC)c3)n2)cc1OC`, with > 79 µM (inactive).

In the case of `CC(=O)Nc1cc(C)nn1-c1nc2ccccc2s1`, the half-inhibitory concentration (IC50) is 18 µM. Take `Cc1nc(NC(=O)c2cc3c(C)nn(-c4ccccc4)c3s2)sc1C(=O)Nc1ccccc1`: the IC50 is > 79 µM (inactive). Then `COc1ccc(C2/C=C\CN(S(=O)(=O)c3cccc4cccnc34)CC(=O)N2Cc2ccc(F)cc2)cc1` (stereo not drawn), with > 79 µM (inactive). For `COc1ccccc1-c1cc(NC=O)c2ncc(-c3cccc(C(C)=O)c3)n2c1`, the IC50 is > 79 µM (inactive).

`CCOC(=O)c1ccc(NC(=O)c2nc[nH]c2C(=O)NCCCCCNC(=O)OC(C)(C)C)cc1`: the concentration for half-maximal inhibition (IC50) was 5.78 µM. On to `O=C(c1cc(-c2cccnc2)nc2ccc(Br)cc12)N1CCN(c2ncccn2)CC1`, for which the IC50 is 9.44 µM. Then `CCOC(=O)C1=c2/c(=C/c3ccncc3)c(N)c(C(=O)OC)n2C(=O)C(c2ccncc2)S1` (stereo not drawn), with > 79 µM (inactive); and `COc1cc2nc(C3CCC3)nc(N3CCN(c4ccccn4)CC3)c2cc1OC`, with > 79 µM (inactive); and `O=c1[nH]nc(Cc2ccc([N+](=O)[O-])cc2)c2ccccc12`, with 29.5 µM.

On to `COc1ccc(C(=O)COC(=O)Cn2[nH]c(=O)c3ccccc3c2=O)c(OC)c1`, for which the IC50 was > 79 µM (inactive). To `CCn1cc(C(=O)Nc2cccc(NC(C)=O)c2)c2cc(OC)c(OC)cc2c1=O` belongs > 79 µM (inactive); to `CC(=O)c1ccc(-c2cnc3c(NC=O)cc(-c4ccc(C(=O)NC5CC5)cc4)cn23)cc1`, > 79 µM (inactive). To `C/C(=N\NC(=O)CCCNc1ccc(C)cc1)c1ccccn1` belongs > 79 µM (inactive); to `COc1cccc(/C=N/NC(=O)c2oc3nc(-c4ccccc4)cc(-c4ccco4)c3c2N)c1`, > 79 µM (inactive).

For `COc1ccc(-c2cnc3c(NC=O)cc(-c4cccc(NS(C)(=O)=O)c4)cn23)cc1OC`, the IC50 is 14.4 µM. Then `Cc1cc(NC(=O)COC(=O)Cn2[nH]c(=O)c3ccccc3c2=O)c([N+](=O)[O-])cc1C`, with > 79 µM (inactive). To `CC1(C)CC(=O)C2=C(C1)N(CCN1CCOCC1)C1=C(C(=O)CC(C)(C)C1)C2c1ccc(Cl)cc1` belongs 31.3 µM (inactive). Then `COc1cccc(NC(=O)CN(C)C(=O)CCCc2nc3ccccc3c(=O)[nH]2)c1`, with > 79 µM (inactive). Take `COc1ccc(COc2cc(-c3cccc(OC)c3)nc3ccc(NC(=O)c4cccnc4)cc23)cc1`: the IC50 was > 79 µM (inactive). To `O=c1cc(-c2ccncc2)oc2ccccc12` belongs > 79 µM (inactive); to `COc1cc(-c2cc(C(=O)N3CCN(c4ccccn4)CC3)c3ccccc3n2)cc(OC)c1OC`, 14.4 µM. On to `N/C(=N\NS(=O)(=O)c1ccccc1)c1ccccn1`, for which the IC50 was > 79 µM (inactive). On to `O=C(N/N=C/c1ccccn1)c1cc(-c2ccncc2)nc2ccccc12`, for which the IC50 was > 79 µM (inactive).

As for `COc1cc(C(=O)Nc2cccc(-c3nnc(-c4ccco4)o3)c2)ccc1OC(C)=O`, the IC50 was > 79 µM (inactive). Then `COc1ccc(-c2nn3c(-c4ccco4)nnc3s2)cc1OC`, with 33.8 µM (inactive); and `COc1cc(/C=C(\C#N)C(=O)Nc2ccccc2F)ccc1OCCN1CCOCC1`, with 25.9 µM. With `CCN(CC)C(=O)CSc1nc2ccccc2c(=O)[nH]1`, the IC50 is > 79 µM (inactive).

Regarding `CC(NC(=O)Cn1nc(C(=O)O)c2ccccc2c1=O)c1ccccc1` (stereo not drawn), the IC50 was > 79 µM (inactive). Then `COC(=O)/C(=C(O)\C=C\c1ccccc1[N+](=O)[O-])c1nc2ccccc2[nH]1`, with > 79 µM (inactive); and `C[C@@H](C(=O)Nc1nc(-c2ccccn2)cs1)N1C(=O)C2CCCCC2C1=O` (stereo partly drawn), with > 79 µM (inactive); and `CN(C(=O)c1sc2nc(N3CCOCC3)c3c(c2c1N)CCCC3)c1ccccc1`, with 5.73 µM.
